# Test results from ChEMBL document CHEMBL5620397, “Design, synthesis and biological evaluation of 3-substituted-2-thioxothiazolidin-4-one (rhodanine) derivatives as antitubercular agents against Mycobacterium tuberculosis protein tyrosine phosphatase B” (Eur J Med Chem, 2023).
# Legend:
# [1] = molecular target: T1, Triple specificity protein phosphatase PtpB (Mycobacterium tuberculosis (strain ATCC 25618 / H37Rv), UniProt I6WXK4); test: Inhibition of Mycobacterium tuberculosis H37Rv ptpB expressed in Escherichia coli BL21(DE3) using pNPP as substrate preincubated for 10 mins followed by substrate addition and measured for 5 mins by spectrophotometer analysis
# T1 sequence (I6WXK4 whole entry): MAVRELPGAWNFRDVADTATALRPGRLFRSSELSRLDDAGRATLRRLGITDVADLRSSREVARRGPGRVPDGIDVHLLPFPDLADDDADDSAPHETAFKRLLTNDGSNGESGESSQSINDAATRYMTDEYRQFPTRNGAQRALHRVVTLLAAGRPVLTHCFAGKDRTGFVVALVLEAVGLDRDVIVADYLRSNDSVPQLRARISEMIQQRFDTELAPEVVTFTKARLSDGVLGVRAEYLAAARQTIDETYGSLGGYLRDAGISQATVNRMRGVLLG
# [2] = molecular target: T2, Triple specificity protein phosphatase PtpB (Mycobacterium tuberculosis (strain ATCC 25618 / H37Rv)) (UniProt I6WXK4); test: Inhibition of Mycobacterium tuberculosis H37Rv ptpB expressed in Escherichia coli BL21(DE3) at 50 uM using pNPP as substrate preincubated for 10 mins followed by substrate addition and measured for 5 mins by spectrophotometer analysis relative to control; conditions: time 15.0 min
# T2 sequence (whole entry): T1 sequence (I6WXK4 whole entry)
# [3] = molecular target: T3, Tyrosine-protein phosphatase non-receptor type 1 (Homo sapiens, UniProt P18031); test: Inhibition of recombinant human PTP1B using pNPP as substrate preincubated for 5 mins followed by substrate addition and measured for 10 mins; assay type: toxicity
# T3 sequence (P18031 whole entry): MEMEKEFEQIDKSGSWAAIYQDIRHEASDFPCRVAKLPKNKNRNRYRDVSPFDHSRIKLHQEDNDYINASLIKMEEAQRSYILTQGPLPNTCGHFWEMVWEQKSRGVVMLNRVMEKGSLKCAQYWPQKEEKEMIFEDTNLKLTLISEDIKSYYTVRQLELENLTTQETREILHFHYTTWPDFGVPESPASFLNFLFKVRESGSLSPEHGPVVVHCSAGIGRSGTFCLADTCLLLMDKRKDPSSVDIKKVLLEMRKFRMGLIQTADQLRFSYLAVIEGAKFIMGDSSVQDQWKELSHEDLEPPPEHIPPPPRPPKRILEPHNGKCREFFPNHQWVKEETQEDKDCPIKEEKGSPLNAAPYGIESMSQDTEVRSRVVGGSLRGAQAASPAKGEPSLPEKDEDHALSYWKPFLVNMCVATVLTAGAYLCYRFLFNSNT
# [4] = molecular target: T2, Triple specificity protein phosphatase PtpB (Mycobacterium tuberculosis (strain ATCC 25618 / H37Rv)); test: Inhibition of Mycobacterium tuberculosis H37Rv ptpB expressed in Escherichia coli BL21(DE3) at 10 uM using pNPP as substrate preincubated for 10 mins followed by substrate addition and measured for 5 mins by spectrophotometer analysis relative to control; conditions: time 15.0 min
# Vero = test: cells; conditions: Chlorocebus sabaeus, 48 h
# Description: Cytotoxicity against african green monkey Vero cells after 48 hrs by MTT assay
# [5] = tested on: Mycobacterium tuberculosis; test: Antituberculosis activity against Mycobacterium tuberculosis H37Rv by microplate alamar blue assay; assay type: functional
# [6] = Cytotoxicity against mouse J774.G8 cells after 48 hrs by MTT assay; assay type: functional, cell-based; conditions: J774.G8, 48 h
Structure (SMILES),IC50 [1],inhibition [2],IC50 [3],also measured
O=C(O)[C@H](C1CCCCC1)N1C(=O)/C(=C/c2ccc(-c3ccccc3C(F)(F)F)cc2)SC1=S,920 nM,93%,1600 nM,
CCCC[C@@H](C(=O)O)N1C(=O)/C(=C/c2ccc(-c3ccncc3Cl)cc2)SC1=S,800 nM,97.1%,,
CCCC[C@@H](C(=O)O)N1C(=O)/C(=C/c2ccc(-c3cccc(C(F)(F)F)c3)c3ccccc23)SC1=S,590 nM,,40 nM,inhibition [4]: 98.6%
CCCC[C@@H](C(=O)O)N1C(=O)/C(=C/c2ccc(-c3cccc(OC)c3)cc2)SC1=S,750 nM,100%,430 nM,
CCCC[C@@H](C(=O)O)N1C(=O)/C(=C/c2ccc(-c3ccc(Cl)s3)cc2)SC1=S,430 nM,98.4%,200 nM,
CCCC[C@@H](C(=O)O)N1C(=O)/C(=C/c2ccc(-c3ccc(F)c(C(F)(F)F)c3)c3ccccc23)SC1=S,670 nM,,5540 nM,inhibition [4]: 105%
O=C(O)[C@@H](C1CCCCC1)N1C(=O)/C(=C/c2ccc(-c3ccc(F)c(C(F)(F)F)c3)cc2)SC1=S,,30.5%,,
O=C(O)[C@@H](Cc1ccccc1)N1C(=O)/C(=C/c2ccc(-c3ccc(F)c(C(F)(F)F)c3)cc2)SC1=S,,56.8%,,
CCCC[C@@H](C(=O)O)N1C(=O)/C(=C/c2ccc(-c3ccc(C(F)(F)F)cc3)cc2)SC1=S,860 nM,100%,1340 nM,
CCCC[C@@H](C(=O)O)N1C(=O)/C(=C/c2ccc(-c3cccc(Cl)c3)c3ccccc23)SC1=S,670 nM,,1530 nM,inhibition [4]: 99.9%
O=C(O)[C@H](Cc1ccccc1)N1C(=O)/C(=C/c2ccc(-c3ccc(F)c(C(F)(F)F)c3)cc2)SC1=S,920 nM,71.3%,,
CCCC[C@@H](C(=O)O)N1C(=O)/C(=C/c2ccc(-c3ccc(Cl)cc3)cc2)SC1=S,600 nM,98.9%,1510 nM,
O=C(O)CN1C(=O)/C(=C/c2ccc(-c3ccc(F)c(C(F)(F)F)c3)cc2)SC1=S,16400 nM,99.4%,,
CCCC[C@@H](C(=O)O)N1C(=O)/C(=C/c2ccc(-c3cccc(C(F)(F)F)c3)c(Cl)c2)SC1=S,420 nM,,1530 nM,inhibition [4]: 99.6%
O=C(O)[C@H](C1CCCCC1)N1C(=O)/C(=C/c2ccc(-c3ccc(C(F)(F)F)cc3)cc2)SC1=S,3130 nM,103%,,
NNC(=O)c1ccncc1 [ISONIAZID],,,,IC50 (Vero): > 64 µg/mL; MIC [5]: 0.038 µg/mL; IC50 [6]: > 64 µg/mL
O=C(O)[C@H](C1CCCCC1)N1C(=O)/C(=C/c2ccc(-c3cccc(Cl)c3)cc2)SC1=S,990 nM,106%,1120 nM,
CCN(CC)c1ccc(/C=C2\SC(=S)NC2=O)c(OCc2ccc(Cl)cc2Cl)c1,,> 35%,,
CCCC[C@@H](C(=O)O)N1C(=O)/C(=C/c2ccc(-c3cccc(Cl)c3)c(Cl)c2)SC1=S,330 nM,,940 nM,inhibition [4]: 102%
CCCC[C@@H](C(=O)O)N1C(=O)/C(=C/c2ccc(-c3cccc(Cl)c3)cn2)SC1=S,530 nM,,390 nM,inhibition [4]: 99.5%
O=C(O)[C@H](c1ccccc1)N1C(=O)/C(=C/c2ccc(-c3ccc(F)c(C(F)(F)F)c3)cc2)SC1=S,2340 nM,97%,,
CCCC[C@@H](C(=O)O)N1C(=O)/C(=C/c2ccc(-c3ccc(OC)cc3)cc2)SC1=S,550 nM,99.4%,770 nM,
CCCC[C@@H](C(=O)O)N1C(=O)/C(=C/c2ccc(-c3ccccc3)cc2)SC1=S,620 nM,94%,,
CCCC[C@H](C(=O)O)N1C(=O)/C(=C/c2ccc(-c3ccc(F)c(C(F)(F)F)c3)cc2)SC1=S,,26.4%,,
CCCC[C@@H](C(=O)O)N1C(=O)/C(=C/c2ccc(-c3cccc(Cl)c3)s2)SC1=S,440 nM,,160 nM,inhibition [4]: 99%
